Test results as given in US8846951B2 (AbbVie Inc., priority 2009, dated 2014).
Read-outs that look alike come from different tables or passages of the source.

Legend:
[1] = biological target: T1, 5HT2C receptors (Homo sapiens, UniProt P28335); test: Human 5-HT2C functional assay in 1321N1 cells (intracellular calcium, FLIPR); type: cell-based; set-up: expressed in transfected cells; host or cells: 1321N1 cells; settings: 5-HT2c agonist activity, maximum calcium response
T1 sequence (P28335 33-458): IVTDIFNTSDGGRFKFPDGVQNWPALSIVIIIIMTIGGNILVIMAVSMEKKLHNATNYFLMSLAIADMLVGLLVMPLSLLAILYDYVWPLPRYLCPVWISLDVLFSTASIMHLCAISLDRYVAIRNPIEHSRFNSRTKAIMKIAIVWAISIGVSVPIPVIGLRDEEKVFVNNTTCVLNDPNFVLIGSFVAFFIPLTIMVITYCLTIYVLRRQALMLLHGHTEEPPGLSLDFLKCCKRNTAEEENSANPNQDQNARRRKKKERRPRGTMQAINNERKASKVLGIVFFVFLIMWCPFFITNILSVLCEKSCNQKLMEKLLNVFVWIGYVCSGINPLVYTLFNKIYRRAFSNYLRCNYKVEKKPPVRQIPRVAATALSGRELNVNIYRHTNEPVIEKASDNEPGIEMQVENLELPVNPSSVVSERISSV
Procedure: (ii) Human 5-HT2C Functional Assay in 1321N1 Cells
Functional activity was determined by testing the effect of the compounds on intracellular calcium levels in 1321N1 cells stably transfected with the human 5-HT2C receptor. Cells were seeded into 96-well plates at 50,000 cells/well and grown overnight in tissue culture medium (DMEM with Glutamax I (Invitrogen), containing 10% dFCS, 50 μg/mL Gentamicin, 400 μg/mL Geneticin) at 37° C. and 7% CO2. Growth medium was replaced by medium without dFCS for overnight incubation. Cells were loaded with a fluorescent calcium-sensitive dye in the presence of 1% probenicid according to the manufacturer's protocol (Fluo4 AM, Molecular Devices). Serial compound dilutions (final concentrations 10^−10 to 10^−5 M) were added to the cells either alone or in the presence of serotonin (10^−9 M) and the maximum calcium response was determined using a FLIPR instrument (Molecular Devices). Concentration-response curves were fitted using a four-parameter logistic equation (GraphPad Prism). The concentration at which the compound exerts half its maximal effect is named the ‘effective concentration 50’ or ‘EC50’ and is listed in Table 2.

[2] = biological target: T2, 5HT2B receptors (Homo sapiens, UniProt P41595); test: Human 5-HT2B functional high throughput screening assay in CHO-K1 cells (calcium flux); type: cell-based; settings: for EC50: CHO-K1 cells, calcium flux
T2 construct: expressed in transfected cells; host or cells: CHO-K1 cells
How it was run: (§1)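 Calcium flux in CHO-K1 cells overexpressing each receptor, using Ca4 dye with probenecid and FLIPR detection. Top concentration was 10 μM, diluted 1:10 across 6 points, and efficacy was scaled to serotonin.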

[3] = biological target: T3, human serotonin 5-HT2c receptor (Homo sapiens, UniProt P28335); test: Human 5-HT2C receptor radioligand binding assay (agonist site, [125I]DOI); settings: 5-HT2c agonist site; transfected CHO cell membranes; 0.2 nM [125I](±)DOI
T3 construct: expressed in transfected cells; host or cells: CHO cells (membrane homogenates)
T3 sequence (P28335 33-458): T1 sequence (P28335 33-458)
Procedure: (i) Human 5-HT2C Receptor Radioligand Binding Assay
Affinity of compounds for the agonist site of the […], receptor in transfected CHO cells was determined in a radioligand binding assay essentially as described by Bryant, H. U., et al., Life Sciences (1996) 59(15), 1259-1268.

[4] = biological target: T1, 5HT2C receptors; test: Human 5-HT2C functional high throughput screening assay in CHO-K1 cells (calcium flux); type: cell-based; set-up: expressed in transfected cells; host or cells: CHO-K1 cells; settings: for EC50: CHO-K1 cells, calcium flux; for Emax: 5-HT2C, maximum functional response as percentage relative to the effect of serotonin
How it was run: as §1

[5] = 5-HT2B agonist activity, read-out: EC50
[6] = 5-HT2C agonist activity, read-out: EC50
[7] = 5-HT2B, maximum functional response as percentage relative to the effect of serotonin

T2 sequence (P41595 whole entry): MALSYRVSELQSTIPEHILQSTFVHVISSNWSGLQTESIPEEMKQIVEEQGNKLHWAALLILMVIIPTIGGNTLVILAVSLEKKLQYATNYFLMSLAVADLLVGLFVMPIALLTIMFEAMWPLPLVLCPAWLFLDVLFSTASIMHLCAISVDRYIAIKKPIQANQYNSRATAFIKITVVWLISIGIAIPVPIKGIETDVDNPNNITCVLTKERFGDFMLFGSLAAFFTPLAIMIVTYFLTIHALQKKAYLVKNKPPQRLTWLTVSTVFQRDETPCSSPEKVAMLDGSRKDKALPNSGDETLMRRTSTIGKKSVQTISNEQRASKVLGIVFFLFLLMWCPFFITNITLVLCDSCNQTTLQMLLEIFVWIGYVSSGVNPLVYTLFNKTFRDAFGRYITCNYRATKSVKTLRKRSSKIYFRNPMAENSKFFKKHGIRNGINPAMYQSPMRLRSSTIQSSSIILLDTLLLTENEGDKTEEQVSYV

| Compound | EC50 [1] | EC50 [2, 5] | Emax ([2]; CHO-K1, 5-HT2B, maximum functional response as percentage relative to the effect of serotonin, read-out: Emax) | Ki [3] | EC50 [4, 6] | Emax ([4]; CHO-K1, read-out: Emax) | Emax [2, 7] | EC50 ([2]; EC50, 5-HT2B agonist activity) | Emax ([4]; CHO-K1) | EC50 ([4]; EC50, 5-HT2C agonist activity) | Emax ([2]; CHO-K1) | Emax [4] |
| --- | --- | --- | --- | --- | --- | --- | --- | --- | --- | --- | --- | --- |
| O=C1NC[C@@H]2CN(Cc3ccccc3)C[C@H]2c2ccc(F)cc21 (relative stereo) [Example 55, Trans-2-benzyl-8-fluoro-1,2,3,3a,4,5-hexahydrobenzo[e]pyrrolo[3,4-c]azepin-6(10bH)-one] | 10.6 nM | – | – | 9.1 nM | – | – | inactive | > 10000 nM | 120% | 40 nM | – | – |
| O=C1NC[C@@H]2CNC[C@H]2c2ccc(F)cc21 (relative stereo) [Example 57, Trans-8-fluoro-1,2,3,3a,4,5-hexahydrobenzo[c]pyrrolo[3,4-e]azepin-6(10bH)-one] | 7.67 nM | – | – | 26 nM | – | – | – | 700 nM | 120% | 6 nM | 100% | – |
| O=C1NC[C@@H]2CN(Cc3ccccc3)C[C@@H]2c2c(F)cccc21 (relative stereo) [Example 66, Cis-2-benzyl-10-fluoro-1,2,3,3a,4,5-hexahydrobenzo[c]pyrrolo[3,4-e]azepin-6(10bH)-one] | 179 nM | – | – | 290 nM | – | – | – | – | – | – | – | – |
| COC(=O)c1cccc(CN2C[C@H]3CNC(=O)c4ccccc4[C@@H]3C2)c1 (relative stereo) [Example 68, Trans-methyl-3-((6-oxo-1,3a,4,5,6,10b-hexahydrobenzo[e]pyrrolo[3,4-c]azepin-2(3H)-yl)methyl)benzoate] | 3.97 nM | > 10000 nM | – | 10 nM | 7 nM | 120% | inactive | – | – | – | – | – |
| CN1C[C@H]2CNC(=O)c3ccccc3[C@@H]2C1 (relative stereo) [Example 69, Trans-2-methyl-1,2,3,3a,4,5-hexahydrobenzo[c]pyrrolo[3,4-e]azepin-6(10bH)-one] | 8.78 nM | – | – | 48 nM | – | – | – | 500 nM | 120% | 9 nM | 70% | – |
| O=C1NC[C@@H]2CN(Cc3cc(Cl)ccc3F)C[C@H]2c2ccccc21 (relative stereo) [Example 70, Trans-2-(5-chloro-2-fluorobenzyl)-1,2,3,3a,4,5-hexahydrobenzo[e]pyrrolo[3,4-c]azepin-6(10bH)-one] | 1.76 nM | – | – | 36 nM | – | – | – | – | – | – | – | – |
| O=C1NC[C@@H]2CNC[C@H]2c2cccc(F)c21 (single isomer, unassigned) [Example 60, Trans-7-fluoro-1,2,3,3a,4,5-hexahydrobenzo[c]pyrrolo[3,4-e]azepin-6(10bH)-one] | 7.65 nM | – | – | 44 nM | – | – | – | 900 nM | 120% | 7 nM | 80% | – |
| O=C1NC[C@H]2CN(Cc3ccccc3)C[C@@H]2c2ccc(F)cc21 [Example 61, (3aS,10bS)-2-Benzyl-8-fluoro-1,2,3,3a,4,5-hexahydrobenzo[e]pyrrolo[3,4-e]azepin-6(10bH)-one] | 3.2 nM | – | – | 6.4 nM | – | – | – | 200 nM | > 120% | 5.82 nM | 10% | – |
| (3aR,10bS)-1,2,3,3a,4,5-Hexahydrobenzo[e]pyrrolo[3,4-c]azepin-6(10bH)-one [Example 47] | 0.575 nM | 20 nM | – | 6.1 nM | 0.3 nM | – | 100% | – | – | – | – | >120% |

Now from value to compound, other results behind:

| EC50 [1] | EC50 [2, 5] | Emax ([2]; CHO-K1, 5-HT2B, maximum functional response as percentage relative to the effect of serotonin, read-out: Emax) | Ki [3] | EC50 [4, 6] | Emax ([4]; CHO-K1, read-out: Emax) | Emax [2, 7] | Compound | EC50 ([2]; EC50, 5-HT2B agonist activity) | Emax ([4]; CHO-K1) | EC50 ([4]; EC50, 5-HT2C agonist activity) | Emax ([2]; CHO-K1) | Emax [4] |
| --- | --- | --- | --- | --- | --- | --- | --- | --- | --- | --- | --- | --- |
| 3.95 nM | 70 nM | 55% | 14 nM | 1 nM | > 120% | – | COc1cccc(CN2C[C@H]3CNC(=O)c4ccccc4[C@@H]3C2)c1 (relative stereo) [Example 28, Trans-2-(3-methoxybenzyl)-1,2,3,3a,4,5-hexahydrobenzo[c]pyrrolo[3,4-e]azepin-6(10bH)-one] | – | – | – | – | – |
| 29 nM | > 10000 nM | – | 31 nM | 30 nM | 110% | inactive | O=C1NC[C@@H]2CN(Cc3ccccc3)C[C@H]2c2cccc(F)c21 (relative stereo) [Example 58, Trans-2-benzyl-7-fluoro-1,2,3,3a,4,5-hexahydrobenzo[e]pyrrolo[3,4-c]azepin-6(10bH)-one] | – | – | – | – | – |
| 115 nM | > 10000 nM | – | 210 nM | 100 nM | 120% | inactive | O=C1NC[C@@H]2CN(Cc3ccccc3)C[C@@H]2c2cccc(F)c21 (relative stereo) [Example 59, Cis-2-benzyl-7-fluoro-1,2,3,3a,4,5-hexahydrobenzo[c]pyrrolo[3,4-e]azepin-6(10bH)-one] | – | – | – | – | – |
| 20.2 nM | > 10000 nM | – | 53 nM | 20 nM | 120% | inactive | O=C1NC[C@@H]2CN(Cc3ccccc3)C[C@H]2c2c(F)cccc21 (relative stereo) [Example 65, Trans-2-benzyl-10-fluoro-1,2,3,3a,4,5-hexahydrobenzo[c]pyrrolo[3,4-e]azepin-6(10bH)-one] | – | – | – | – | – |
